Laboratory results reported in ChEMBL document CHEMBL1201862, “PubChem BioAssay data set” (2004).
Blank lines part the entries; values can stand above or below the molecule they belong to. Activity calls are given as the source filed them.

Legend:
[1] = target: C-C chemokine receptor type 6 (Homo sapiens, UniProt P51684); assay: antagonism of CCR6 beta-arrestin recruitment – cell-based, luminescent beta-arrestin readout, dose response (AID 504728); format: functional
Beta-galactosidase = Beta-galactosidase (Escherichia coli, UniProt Q8VNN2); assay: detection-enzyme interference by beta-gal modulators – biochemical, E. coli enzyme, set 3, artefact control for CCR6 antagonist project, dose response (AID 504712); format: functional
Beta-galactosidase, sequence (Q8VNN2 whole entry): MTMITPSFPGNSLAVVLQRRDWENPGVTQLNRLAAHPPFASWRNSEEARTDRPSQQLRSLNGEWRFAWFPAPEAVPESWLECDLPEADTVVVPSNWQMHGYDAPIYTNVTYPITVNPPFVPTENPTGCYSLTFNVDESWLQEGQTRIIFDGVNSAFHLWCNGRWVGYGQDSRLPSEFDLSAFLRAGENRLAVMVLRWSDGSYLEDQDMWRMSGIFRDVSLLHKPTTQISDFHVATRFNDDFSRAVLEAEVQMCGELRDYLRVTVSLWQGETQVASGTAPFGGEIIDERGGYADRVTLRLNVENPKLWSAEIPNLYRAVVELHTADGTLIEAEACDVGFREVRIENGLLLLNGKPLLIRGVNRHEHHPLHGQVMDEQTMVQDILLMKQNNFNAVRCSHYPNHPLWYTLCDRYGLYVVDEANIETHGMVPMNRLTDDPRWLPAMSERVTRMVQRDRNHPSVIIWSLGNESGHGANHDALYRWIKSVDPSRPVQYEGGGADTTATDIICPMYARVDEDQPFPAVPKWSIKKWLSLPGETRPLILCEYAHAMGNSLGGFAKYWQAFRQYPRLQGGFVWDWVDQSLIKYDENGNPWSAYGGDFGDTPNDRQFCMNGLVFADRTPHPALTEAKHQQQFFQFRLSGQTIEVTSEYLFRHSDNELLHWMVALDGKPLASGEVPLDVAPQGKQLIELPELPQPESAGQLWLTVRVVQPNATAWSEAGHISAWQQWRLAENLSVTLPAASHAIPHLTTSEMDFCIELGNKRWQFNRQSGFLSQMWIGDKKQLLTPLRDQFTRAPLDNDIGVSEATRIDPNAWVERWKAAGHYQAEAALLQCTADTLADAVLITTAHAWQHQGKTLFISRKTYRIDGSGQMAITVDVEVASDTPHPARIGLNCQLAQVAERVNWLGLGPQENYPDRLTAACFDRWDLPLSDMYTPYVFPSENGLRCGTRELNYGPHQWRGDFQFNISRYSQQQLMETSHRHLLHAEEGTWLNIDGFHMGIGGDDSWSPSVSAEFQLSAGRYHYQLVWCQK

[2] = fluconazole-exposed Candida albicans growth modulators – fluorescence, retest, confirmation (AID 2467); format: functional, cell-based
[3] = target: NACHT, LRR and PYD domains-containing protein 1 (Homo sapiens, UniProt Q9C000); assay: NALP1 inhibitors in yeast, dose response, luminescent (AID 488860); format: functional
NACHT, LRR and PYD domains-containing protein 1, sequence (Q9C000 1-1212 limits assumed): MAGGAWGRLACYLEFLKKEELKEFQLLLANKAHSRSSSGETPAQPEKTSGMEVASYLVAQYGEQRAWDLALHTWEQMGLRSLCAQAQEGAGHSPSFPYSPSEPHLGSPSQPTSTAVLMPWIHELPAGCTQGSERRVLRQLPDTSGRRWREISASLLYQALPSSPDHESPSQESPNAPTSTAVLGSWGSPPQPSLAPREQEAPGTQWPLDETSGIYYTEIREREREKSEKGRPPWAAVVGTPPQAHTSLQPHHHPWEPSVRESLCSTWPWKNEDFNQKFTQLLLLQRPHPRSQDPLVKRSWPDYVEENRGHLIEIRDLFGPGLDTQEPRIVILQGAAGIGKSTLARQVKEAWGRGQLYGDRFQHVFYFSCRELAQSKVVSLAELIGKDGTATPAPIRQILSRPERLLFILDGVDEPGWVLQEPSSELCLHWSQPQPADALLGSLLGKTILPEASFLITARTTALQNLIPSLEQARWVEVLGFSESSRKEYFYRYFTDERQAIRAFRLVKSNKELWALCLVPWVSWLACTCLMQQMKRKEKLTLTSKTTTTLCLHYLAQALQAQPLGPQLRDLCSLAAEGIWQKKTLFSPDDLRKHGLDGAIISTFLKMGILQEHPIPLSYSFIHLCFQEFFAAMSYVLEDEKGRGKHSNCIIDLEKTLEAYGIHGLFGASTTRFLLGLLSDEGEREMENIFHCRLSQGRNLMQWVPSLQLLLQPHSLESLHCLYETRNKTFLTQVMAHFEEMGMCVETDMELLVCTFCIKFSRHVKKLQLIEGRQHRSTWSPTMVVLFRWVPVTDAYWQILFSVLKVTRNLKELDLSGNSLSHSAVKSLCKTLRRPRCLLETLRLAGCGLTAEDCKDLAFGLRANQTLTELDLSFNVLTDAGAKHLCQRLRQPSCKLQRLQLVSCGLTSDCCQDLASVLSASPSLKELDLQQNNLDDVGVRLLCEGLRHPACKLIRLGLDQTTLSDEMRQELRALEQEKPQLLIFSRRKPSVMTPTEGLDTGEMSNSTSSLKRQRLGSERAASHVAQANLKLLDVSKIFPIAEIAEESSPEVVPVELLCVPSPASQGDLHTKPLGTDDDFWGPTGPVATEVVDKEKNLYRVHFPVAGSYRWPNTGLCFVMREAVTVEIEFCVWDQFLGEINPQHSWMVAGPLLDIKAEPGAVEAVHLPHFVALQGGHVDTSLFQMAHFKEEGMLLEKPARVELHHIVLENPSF
NACHT, LRR and PYD domains-containing protein 1, sequence (Q9C000 1213-1473 limits assumed): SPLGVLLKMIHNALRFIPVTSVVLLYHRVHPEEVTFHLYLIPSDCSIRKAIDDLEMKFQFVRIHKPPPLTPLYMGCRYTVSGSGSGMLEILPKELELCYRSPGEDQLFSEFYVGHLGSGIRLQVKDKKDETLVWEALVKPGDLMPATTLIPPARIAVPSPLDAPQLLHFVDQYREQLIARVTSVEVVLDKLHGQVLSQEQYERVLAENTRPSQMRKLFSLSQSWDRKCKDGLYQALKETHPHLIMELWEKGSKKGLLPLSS

Saccharomyces cerevisiae = assay: S. cerevisiae Caspase-1/ASC signal blockers IC50, NALP1 inhibitor project selectivity test (AID 488863); format: functional, organism-based
[4] = target: T1, Alkaline phosphatase, tissue-nonspecific isozyme (Homo sapiens, UniProt P05186)
T1 sequence (P05186 whole entry): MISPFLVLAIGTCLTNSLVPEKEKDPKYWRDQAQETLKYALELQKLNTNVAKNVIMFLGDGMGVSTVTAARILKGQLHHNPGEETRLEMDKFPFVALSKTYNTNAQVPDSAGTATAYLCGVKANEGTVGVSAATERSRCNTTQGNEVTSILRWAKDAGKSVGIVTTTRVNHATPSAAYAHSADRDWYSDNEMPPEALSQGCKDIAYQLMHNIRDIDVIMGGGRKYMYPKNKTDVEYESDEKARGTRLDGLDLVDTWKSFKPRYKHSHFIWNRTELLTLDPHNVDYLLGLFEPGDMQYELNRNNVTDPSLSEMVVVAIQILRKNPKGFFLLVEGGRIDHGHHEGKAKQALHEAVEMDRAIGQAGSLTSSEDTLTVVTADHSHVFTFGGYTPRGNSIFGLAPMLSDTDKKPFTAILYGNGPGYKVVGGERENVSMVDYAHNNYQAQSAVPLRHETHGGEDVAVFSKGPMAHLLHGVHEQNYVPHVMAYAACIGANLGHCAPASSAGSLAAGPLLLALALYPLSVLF

[5] = target: NACHT, LRR and PYD domains-containing protein 3 (Homo sapiens, UniProt Q96P20); assay: NALP3 inhibitors in yeast, dose response, luminescent (AID 488799); format: functional
NACHT, LRR and PYD domains-containing protein 3, sequence (Q96P20 whole entry, the tested form may be a part): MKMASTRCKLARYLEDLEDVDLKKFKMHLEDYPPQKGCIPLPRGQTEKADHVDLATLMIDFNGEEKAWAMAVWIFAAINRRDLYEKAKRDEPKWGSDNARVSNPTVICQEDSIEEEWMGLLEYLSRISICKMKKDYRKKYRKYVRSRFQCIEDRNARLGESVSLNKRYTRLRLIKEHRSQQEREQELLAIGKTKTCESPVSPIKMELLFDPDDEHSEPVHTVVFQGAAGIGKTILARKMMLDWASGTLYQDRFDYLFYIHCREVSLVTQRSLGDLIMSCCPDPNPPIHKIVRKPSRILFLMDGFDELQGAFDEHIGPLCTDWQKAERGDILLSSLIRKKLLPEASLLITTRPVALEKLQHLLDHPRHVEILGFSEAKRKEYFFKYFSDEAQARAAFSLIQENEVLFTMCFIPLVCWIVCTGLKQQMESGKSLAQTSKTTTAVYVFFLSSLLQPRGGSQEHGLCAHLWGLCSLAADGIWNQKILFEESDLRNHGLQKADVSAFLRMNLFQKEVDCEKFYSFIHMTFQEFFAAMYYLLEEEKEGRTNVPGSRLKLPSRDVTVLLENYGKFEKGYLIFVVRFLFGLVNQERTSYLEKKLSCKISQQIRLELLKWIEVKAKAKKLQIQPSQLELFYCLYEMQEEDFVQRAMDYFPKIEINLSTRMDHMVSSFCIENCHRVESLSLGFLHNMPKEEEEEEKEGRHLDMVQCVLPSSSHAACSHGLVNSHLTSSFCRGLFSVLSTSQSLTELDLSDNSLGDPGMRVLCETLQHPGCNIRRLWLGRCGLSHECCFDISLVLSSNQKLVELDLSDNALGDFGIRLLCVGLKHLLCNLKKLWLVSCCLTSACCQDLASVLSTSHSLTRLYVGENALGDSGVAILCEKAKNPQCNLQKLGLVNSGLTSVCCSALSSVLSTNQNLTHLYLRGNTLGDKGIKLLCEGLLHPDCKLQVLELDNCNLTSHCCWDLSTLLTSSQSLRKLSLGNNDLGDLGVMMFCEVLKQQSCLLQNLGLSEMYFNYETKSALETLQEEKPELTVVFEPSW

[6] = target: Intestinal-type alkaline phosphatase (Homo sapiens, UniProt P09923); assay: Dose Response confirmation of uHTS hits from a small molecule inhibitors of human intestinal alkaline phosphatase via a luminescent assay. [Related pubchem assays (depositor defined):AID2544, AID2574]; format: functional
Intestinal-type alkaline phosphatase, sequence (P09923 whole entry): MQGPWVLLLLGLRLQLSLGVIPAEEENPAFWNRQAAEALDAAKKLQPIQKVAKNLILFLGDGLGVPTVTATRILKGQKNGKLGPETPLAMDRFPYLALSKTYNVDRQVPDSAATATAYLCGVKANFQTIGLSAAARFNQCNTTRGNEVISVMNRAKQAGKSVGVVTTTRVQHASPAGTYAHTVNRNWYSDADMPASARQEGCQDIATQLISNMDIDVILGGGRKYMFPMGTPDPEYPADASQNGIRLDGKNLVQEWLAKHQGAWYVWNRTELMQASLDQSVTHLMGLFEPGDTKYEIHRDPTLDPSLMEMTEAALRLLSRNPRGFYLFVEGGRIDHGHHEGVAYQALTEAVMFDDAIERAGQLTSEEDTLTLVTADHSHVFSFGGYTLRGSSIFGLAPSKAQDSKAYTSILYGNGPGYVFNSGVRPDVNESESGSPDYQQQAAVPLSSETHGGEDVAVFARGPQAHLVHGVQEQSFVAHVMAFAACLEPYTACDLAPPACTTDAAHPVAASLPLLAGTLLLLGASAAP

[7] = Trypanosoma cruzi growth suppression in host cells – NIH3T3 host cells, beta-gal luminescence, confirmation (AID 2044); format: functional, cell-based;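 also: intracellular parasites grown in NIH/3T3 mouse fibroblasts as host cells; luminescent beta-galactosidase reporter signal from transgenic T. cruzi replicating inside host cells; inhibitors lower the luminescence signal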
[8] = target: G-protein coupled receptor 35 (Homo sapiens, UniProt Q9HC97); assay: inhibition of zaprinast-stimulated GPR35 beta-arrestin translocation – imaging, U2OS, beta-arrestin-GFP, zaprinast agonist, primary screen (AID 2058); format: functional;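 also: antagonist potency meaning inhibition of agonist-induced arrestin redistribution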
G-protein coupled receptor 35, sequence (Q9HC97 whole entry): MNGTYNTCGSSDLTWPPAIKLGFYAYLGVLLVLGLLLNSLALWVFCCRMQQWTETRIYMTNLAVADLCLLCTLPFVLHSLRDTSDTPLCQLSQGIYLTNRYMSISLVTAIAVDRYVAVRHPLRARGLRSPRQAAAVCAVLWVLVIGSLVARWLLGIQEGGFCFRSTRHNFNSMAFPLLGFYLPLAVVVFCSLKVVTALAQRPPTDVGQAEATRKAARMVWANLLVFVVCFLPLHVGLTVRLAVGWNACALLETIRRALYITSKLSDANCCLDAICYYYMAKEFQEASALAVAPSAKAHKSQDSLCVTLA

[9] = viability of PTEN-deleted HCT116 cells – cell-based, HCT116 PTEN knockout, dose response (AID 1047); format: functional;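 also: HCT116 colon tumor cells with PTEN knocked out; cells exposed to compound for 60 hours before readout; potency for loss of cell viability measured by luminescence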
[10] = viability of HCT116 lacking mutant beta-catenin – cell-based, human colon tumor, dose response (AID 1045); format: functional;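 also: HCT116 colon tumor cells with beta catenin knocked out; cells exposed to compound for 60 hours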
INS1 = assay: INS-1E survival protection against cytokine death – cell-based, luminescence, retest, dose response (AID 449756); format: functional; conditions: Rattus norvegicus;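 also: cell death triggered by IL-1 beta plus TNF-alpha plus IFN-gamma mixture; protective hits raise ATP signal compared with cytokine alone wells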

C-C chemokine receptor type 6, sequence (P51684 whole entry): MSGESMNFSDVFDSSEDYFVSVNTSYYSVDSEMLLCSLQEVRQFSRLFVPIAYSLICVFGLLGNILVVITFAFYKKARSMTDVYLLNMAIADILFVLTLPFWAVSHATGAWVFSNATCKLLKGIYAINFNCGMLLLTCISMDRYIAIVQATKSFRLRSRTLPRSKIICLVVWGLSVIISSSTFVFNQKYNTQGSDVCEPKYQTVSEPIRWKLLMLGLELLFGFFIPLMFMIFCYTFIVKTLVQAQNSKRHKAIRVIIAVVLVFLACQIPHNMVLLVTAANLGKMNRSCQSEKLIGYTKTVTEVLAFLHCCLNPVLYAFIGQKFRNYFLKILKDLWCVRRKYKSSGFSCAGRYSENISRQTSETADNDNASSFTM

Structure (SMILES): CC[N+]1(C)CCC(O)(/C=C/c2ccccc2)C(C(=O)/C=C/c2ccccc2)C1 (stereo not drawn)
IC50 [1]: 39.9 µM (inactive)
IC50 (Beta-galactosidase): > 66.6 µM (inactive)

Structure (SMILES): O=C1/C(=C/c2cccnc2)SC(=S)N1C1CCS(=O)(=O)C1 (stereo not drawn)
EC50 [2]: 0.445 µM (active)
IC50 [3]: 33.8 µM (active)
IC50 (Saccharomyces cerevisiae): 49.1 µM (active)

EC50 [4]: 88.3 µM (not active)
Structure (SMILES): CCn1c(/C=N/Nc2ccc(C(=O)O)cc2)nc2ccccc21

Structure (SMILES): Cc1cccc(C(=O)ONC(=N)Cc2cccc3ccccc23)c1
IC50 [5]: 1.62 µM (active)

IC50 [6]: > 100 µM (inactive)
Structure (SMILES): O=C(COc1ccccc1Cl)N1CCN(c2ccc([N+](=O)[O-])c(N3CCCCC3)c2)CC1

Structure (SMILES): COc1ccc(/N=C2\S/C(=C\c3ccc(N4CCOCC4)o3)C(=O)N2CCc2c[nH]c3ccccc23)cc1
EC50 [7]: 0.335 µM (active)
IC50 [8]: 1.49 µM (active)
EC50 [9]: 10 µM (active)
EC50 [10]: 7.54 µM (active)
AC50 (INS1): 7.09 µM (active)
